58 compounds from patent US9693992B2 (MannKind Corporation, priority 2010, dated 2017) can be followed below.

The target in this assay is IRE-1α (Homo sapiens (Human), UniProt O75460). The assay can be described thus: Cellular EC50: endogenous XBP-1 splicing in myeloma cells (MM.1s, DTT stress, RT-PCR). The class given is cell-based. Conditions: average cellular EC50, XBP-1 splicing in myeloma cells. The protocol:
Human myeloma MM.1s cells are incubated with a compound for 1.25 hours before stressing the cells with 2 mM dithiothreitol (DTT). After an additional 45 minutes (2 hours total) with compound and DTT, the cells are harvested with TRIZOL® (a mono-phasic solution of phenol and guanidine isothiocyanate), and total RNA is prepared as directed by the manufacturer (Invitrogen). Human XBP-1 is amplified by RT-PCR with the following primers, which flank the 26 base unconventional intron excised by IRE-1α:
RT-PCR of unstressed (U) cells then generates the upper band. When cells are stressed (S) with the endoplasmic reticulum (ER) stressing agent DTT, IRE-1α is activated due to accumulating unfolded protein and the resulting RT-PCR product is 26 base pairs shorter.
Compounds which pass specificity assays are assayed for cellular EC50 using endogenous XBP-1 splicing in myeloma cells. XBP-1 is regulated through the excision of a 26 nucleotide intron from the XBP-1 mRNA by the highly specific endoribonuclease activity of IRE-1α. […] This splicing event is used to measure IRE-1α activity on XBP-1 mRNA in cells and tissues.
Briefly, compounds are incubated in the presence or absence of an ER stress agent (e.g., DTT), and the ratio of XBP-1u (unspliced) to XBP-1s (spliced) is quantified by RT-PCR. The ED50 is determined as the 50% XBP-1s to total XPB-1 levels.

Structures are written as SMILES.

Chain of IRE-1α (O75460 19-977): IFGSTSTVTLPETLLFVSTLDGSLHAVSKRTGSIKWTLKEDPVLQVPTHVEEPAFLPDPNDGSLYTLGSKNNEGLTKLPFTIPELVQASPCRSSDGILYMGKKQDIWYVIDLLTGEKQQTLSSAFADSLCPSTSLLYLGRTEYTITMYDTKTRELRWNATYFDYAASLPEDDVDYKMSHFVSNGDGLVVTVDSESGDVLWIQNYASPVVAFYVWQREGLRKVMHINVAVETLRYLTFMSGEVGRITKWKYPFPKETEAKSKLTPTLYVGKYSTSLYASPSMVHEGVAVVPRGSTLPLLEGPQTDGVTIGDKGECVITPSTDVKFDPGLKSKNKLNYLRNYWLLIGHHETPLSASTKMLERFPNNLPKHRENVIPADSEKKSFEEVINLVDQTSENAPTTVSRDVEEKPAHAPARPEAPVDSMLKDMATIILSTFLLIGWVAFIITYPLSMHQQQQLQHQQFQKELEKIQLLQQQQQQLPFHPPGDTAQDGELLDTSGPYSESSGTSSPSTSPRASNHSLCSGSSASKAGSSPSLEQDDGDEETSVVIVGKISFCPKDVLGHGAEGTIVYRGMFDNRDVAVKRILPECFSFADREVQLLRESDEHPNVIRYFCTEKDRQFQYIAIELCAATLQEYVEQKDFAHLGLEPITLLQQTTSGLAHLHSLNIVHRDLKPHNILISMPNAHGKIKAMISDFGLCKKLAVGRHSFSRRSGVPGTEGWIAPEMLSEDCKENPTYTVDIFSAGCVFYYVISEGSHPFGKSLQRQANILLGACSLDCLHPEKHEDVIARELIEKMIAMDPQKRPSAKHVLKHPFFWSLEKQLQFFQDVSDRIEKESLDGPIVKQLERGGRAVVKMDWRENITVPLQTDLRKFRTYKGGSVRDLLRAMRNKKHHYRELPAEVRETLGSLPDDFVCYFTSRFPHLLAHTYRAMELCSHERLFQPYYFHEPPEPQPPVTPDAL

For the compound `Cc1c(-c2ccc(C(=O)NCCN3CCOCC3)cc2)c(=O)oc2c(C=O)c(O)ccc12` [Example 3], the EC50 (usually the concentration that produces a half-maximal response) was < 10 µM.

`CC(C)c1cc(=O)oc2c(C=O)c(O)ccc12` [Example 5]: the EC50 was < 10 µM.

On to `O=Cc1c(O)ccc2cc(C(=O)O)c(=O)oc12` [Example 8], for which the EC50 was > 10 µM.

In the case of `Cc1c(-c2cccc(C(=O)N3CCN(C)CC3)c2)c(=O)oc2c(C=O)c(O)ccc12` [Example 10], the EC50 is < 10 µM.

In the case of `Cc1c(-c2cccc(C(=O)NCCN3CCOCC3)c2)c(=O)oc2c(C=O)c(O)ccc12` [Example 11], the EC50 was < 10 µM.

Take `Cc1c(-c2ccc(C(=O)N3CCOCC3)cc2)c(=O)oc2c(C=O)c(O)ccc12` [Example 12]: the concentration giving a half-maximal response (EC50) was < 10 µM.

Take `Cc1c(-c2ccc(N3CCN(C)CC3)nc2)c(=O)oc2c(C=O)c(O)ccc12` [Example 14]: the concentration for a half-maximal effect (EC50) is < 10 µM.

Consider `Cc1c(CCC(=O)N2CCN(C)CC2)c(=O)oc2c(C=O)c(O)ccc12` [Example 15], for which the EC50 is < 10 µM.

For `Cc1c(-c2ccc(C(=O)N(C)C)cc2)c(=O)oc2c(C=O)c(O)ccc12` [Example 17], the EC50 was < 10 µM.

On to `Cc1c(-c2cccc(C(=O)N(C)C)c2)c(=O)oc2c(C=O)c(O)ccc12` [Example 20], for which the EC50 is > 10 µM.

On to `Cc1cc(=O)oc2c(C=O)c(O)c(Cl)cc12` [Example 22], for which the EC50 is < 10 µM.

Turning to `O=Cc1c(O)ccc2c1CCN(Cc1ccccc1)C2` [Example 28], the EC50 was > 10 µM.

As for `CN1CCN(C(=O)c2cnc(N3CCc4c(ccc(O)c4C=O)C3)s2)CC1` [Example 33], the EC50 is > 10 µM.

With `Cc1nc(N2CCc3c(ccc(O)c3C=O)C2)sc1C(=O)NC1CCNCC1` [Example 35], the concentration for a half-maximal effect (EC50) was > 10 µM.

For the compound `Cc1nc(N2CCc3c(ccc(O)c3C=O)C2)sc1C(=O)NC1CCN(C)CC1` [Example 36], the concentration giving a half-maximal response (EC50) was > 10 µM.

On to `Cc1nc(N2CCc3c(ccc(O)c3C=O)C2)sc1C(=O)NCCN1CCOCC1` [Example 37], for which the EC50 was > 10 µM.

As to `CN1CCN(c2ncc(C(=O)N3CCc4c(ccc(O)c4C=O)C3)s2)CC1` [Example 38], the EC50 is > 10 µM.

Regarding `CCc1cc2c(=O)c(-c3nc(C)cs3)coc2c(C=O)c1O` [Example 39], the EC50 was > 10 µM.

As to `O=Cc1c(O)ccc2c(=O)c(-c3cnn(-c4ccccc4)c3)coc12` [Example 40], the EC50 was > 10 µM.

With `CN1CCN(C(=O)c2ccc(-c3ccc4c(C=O)c(O)ccc4n3)cc2)CC1` [Example 41], the EC50 was < 10 µM.

As to `CN1CCN(C(=O)c2cccc(-c3ccc4c(C=O)c(O)ccc4n3)c2)CC1` [Example 42], the concentration for a half-maximal effect (EC50) is < 10 µM.

Take `O=Cc1c(O)ccc2nc(-c3ccc(C(=O)N4CCOCC4)cc3)ccc12` [Example 44]: the EC50 was < 10 µM.

For the compound `O=Cc1c(O)ccc2nc(-c3ccc(C(=O)NCCN4CCOCC4)cc3)ccc12` [Example 45], the EC50 is < 10 µM.

On to `O=Cc1c(O)ccc2nc(-c3cccc(C(=O)NCCN4CCOCC4)c3)ccc12` [Example 46], for which the EC50 is < 10 µM.

`O=Cc1c(O)ccc2nc(SCC(=O)O)[nH]c12` [Example 63]: the EC50 is > 10 µM.

For `O=Cc1c(O)ccc2nc(-c3cccc(C(=O)O)c3)[nH]c12` [Example 64], the EC50 is > 10 µM.

Take `COC(=O)c1cccc(-c2nc3ccc(O)c(C=O)c3[nH]2)c1` [Example 65]: the EC50 is < 10 µM.

As for `Cc1c(-c2ccc(C(=O)N3CCOCC3)cc2)c(=O)oc2c(C=O)c(O)c(Cl)cc12` [Example 67], the EC50 was > 10 µM.

Consider `CCOC(=O)c1sc(-c2cc3ccc(O)c(C=O)c3oc2=O)nc1C` [Example 68], for which the EC50 was < 10 µM.

As to `Cc1c(CC(=O)O)c(=O)oc2c(C=O)c(O)ccc12` [Example 70], the EC50 is > 10 µM.

Take `Cc1oc2c(C=O)c(O)ccc2c(=O)c1CCC(=O)N1CCN(C)CC1` [Example 88]: the 50% effective concentration (EC50) is > 10 µM.

For the compound `COc1cc2c(=O)c(CCC(=O)NCCN3CCOCC3)c(C)oc2c(C=O)c1O` [Example 93], the EC50 is > 10 µM.

Consider `COc1cc2c(=O)c(CCC(=O)N3CCN(C)CC3)c(C)oc2c(C=O)c1O` [Example 94], for which the EC50 was > 10 µM.

Consider `CCOC(=O)c1cnc(-c2cc3ccc(O)c(C=O)c3oc2=O)s1` [Example 106], for which the EC50 is < 10 µM.

With `CN1CCN(C(=O)c2cnc(-c3cc4ccc(O)c(C=O)c4oc3=O)s2)CC1` [Example 107], the EC50 is < 10 µM.

Take `Cc1nc(-c2cc3ccc(O)c(C=O)c3oc2=O)sc1C(=O)N1CCN(C)CC1` [Example 108]: the EC50 was < 10 µM.

As to `Cc1nc(-c2cc3ccc(O)c(C=O)c3oc2=O)sc1C(=O)NCCN1CCOCC1` [Example 109], the EC50 is < 10 µM.

In the case of `Cc1nc(-c2c(C)c3ccc(O)c(C=O)c3oc2=O)sc1C(=O)N1CCN(C)CC1` [Example 110], the EC50 was < 10 µM.

`COc1cc2c(C)c(-c3ccc(C(=O)N4CCN(C)CC4)cc3)c(=O)oc2c(C=O)c1O` [Example 111]: the EC50 is < 10 µM.

In the case of `Cc1c(/C=C/C(=O)N2CCN(C)CC2)c(=O)oc2c(C=O)c(O)ccc12` [Example 112], the EC50 is < 10 µM.

Consider `COc1cc2c(C)c(-c3ccc(N4CCN(C)CC4)nc3)c(=O)oc2c(C=O)c1O` [Example 113], for which the EC50 was < 10 µM.

For `COc1cc2c(C)c(-c3ccc(N4CCOCC4)nc3)c(=O)oc2c(C=O)c1O` [Example 114], the EC50 is < 10 µM.

`COc1cc2c(C)c(-c3ccc(N(C)C)nc3)c(=O)oc2c(C=O)c1O` [Example 115]: the EC50 was < 10 µM.

For the compound `[2H]C(=O)c1c(O)ccc2c(C)c(-c3ccc(C(=O)NCCN4CCOCC4)cc3)c(=O)oc12` [Example 116], the EC50 is < 10 µM.

`CCc1cc2c(C)c(-c3ccc(C(=O)NCCN4CCOCC4)cc3)c(=O)oc2c(C=O)c1O` [Example 117]: the half-maximal effective concentration (EC50) was < 10 µM.

On to `CCc1cc2c(C)c(-c3ccc(C(=O)NCCOC)cc3)c(=O)oc2c(C=O)c1O` [Example 118], for which the EC50 is < 10 µM.

Regarding `CCc1cc2c(C)c(-c3ccc(C(=O)N4CCOCC4)cc3)c(=O)oc2c(C=O)c1O` [Example 119], the EC50 is > 10 µM.

Consider `COc1cc(O)c(C=O)c2oc(=O)cc(C)c12` [Example 120], for which the EC50 is < 10 µM.

As to `COCCOc1cc(O)c(C=O)c2oc(=O)cc(C)c12` [Example 121], the 50% effective concentration (EC50) is < 10 µM.

As for `COCc1cc(=O)oc2c(C=O)c(O)cc(OC)c12` [Example 122], the EC50 is < 10 µM.

Take `COCCc1c(C)c2c(O)cc(O)c(C=O)c2oc1=O` [Example 123]: the EC50 is < 10 µM.

On to `COCCc1c(C)c2c(OC)cc(O)c(C=O)c2oc1=O` [Example 124], for which the EC50 was < 10 µM.

On to `COCCc1c(C)c2cc(OC)c(O)c(C=O)c2oc1=O` [Example 125], for which the EC50 is < 10 µM.

Consider `C=CCc1c(C)c2c(OC)cc(O)c(C=O)c2oc1=O` [Example 126], for which the EC50 was < 10 µM.

Turning to `COCCOCCc1c(C)c2cc(OC)c(O)c(C=O)c2oc1=O` [Example 127], the EC50 is < 10 µM.

With `Cc1c(CC(=O)N2CCOCC2)c(=O)oc2c(C=O)c(O)ccc12` [Example 129], the EC50 is < 10 µM.

For `Cc1c(CC(=O)N2CCN(C)CC2)c(=O)oc2c(C=O)c(O)ccc12` [Example 130], the EC50 is < 10 µM.

`CCOC(=O)Cc1c(C)c2cc(OC)c(O)c(C=O)c2oc1=O` [Example 131]: the EC50 was < 10 µM.
